Measured values published in ChEMBL document CHEMBL1154963, “Part 2: Structure-activity relationship (SAR) investigations of fused pyrazoles as potent, selective and orally available inhibitors of p38alpha mitogen-activated protein kinase” (Bioorg Med Chem Lett, 2010).

Assays:
Type in all cases: ADME, organism-based
[1] = Half life in Sprague-Dawley rat at 2 mg/kg, iv; design: dose 2 mg/kg, route intravenous; conditions: in vivo
[2] = Clearance in Sprague-Dawley rat at 2 mg/kg, iv; design: dose 2 mg/kg, route intravenous; conditions: in vivo
[3] = AUC (0 to infinity) in Sprague-Dawley rat at 2 mg/kg, po; design: time infinity, dose 2 mg/kg, route oral; conditions: plasma
[4] = Oral bioavailability in Sprague-Dawley rat at 2 mg/kg; conditions: in vivo
[5] = Volume of distribution at steady state in Sprague-Dawley rat at 2 mg/kg, iv; design: dose 2 mg/kg, route intravenous; conditions: in vivo, read-out: Vdss

| half-life [1] | clearance [2] | AUC(0-inf) [3] | bioavailability [4] | Vd [5] | SMILES |
| --- | --- | --- | --- | --- | --- |
| 2.2 h | 7.83 mL/min/kg | 3880 ng·h/mL | 91% | 1.4 L/kg | Cc1nnc(Nc2cc(C(=O)NC3CC3)ccc2Cl)c2cnn(-c3c(F)cccc3F)c12 |
| 2.8 h | 9.67 mL/min/kg | 671 ng·h/mL | 19% | 1.6 L/kg | Cc1ccc(C(=O)NC2CC2)cc1Nc1nncc2c1cnn2-c1c(F)cccc1F |
| 3.6 h | 3.67 mL/min/kg | 6830 ng·h/mL | 75% | 1.1 L/kg | O=C(NC1CC1)c1ccc(Cl)c(Nc2nncc3c2cnn3-c2c(F)cccc2F)c1 |
| 3.5 h | 2.67 mL/min/kg | 6550 ng·h/mL | 53% | 0.89 L/kg | O=C(NC1CC1)c1ccc(Cl)c(Nc2nncc3c2cnn3-c2ccc(F)cc2F)c1 |
